From patent publication US20260327264A1, “PEPTIDE INHIBITORS OF INTERLEUKIN-23 RECEPTOR” (Zealand Pharma A/S, priority 2023, published 2026)
*1 amine or outer side, *2 acyl side, *3 side chain or, on linkers, in order; H or OH if unused. Where a SMILES comes first, the peptide text is derived from it. Bridges are numbered along the chain shown (N, C = ends). [ ]: non-standard residue; d: D form. 2Nal = N[C@@H](Cc1ccc2ccccc2c1)C(=O)O; AEF = NCCOc1ccc(C[C@H](N)C(=O)O)cc1; X1 = O=C(Cc1ccc(CN[*:1])cc1)[*:2]; 3Pal = N[C@@H](Cc1cccnc1)C(=O)O; αMeL = CC(C)C[C@](C)(N)C(=O)O; CH2COCH2 = O=C(C[*:1])C[*:2]; 3Amb = NCc1cccc(C(=O)O)c1; NMeA = CN[C@@H](C)C(=O)O; Dab = NCC[C@H](N)C(=O)O; Aib = CC(C)(N)C(=O)O; βAla = NCCC(=O)O

How the values were obtained:
human IL-23R = target: T1, human IL-23R (Homo sapiens, UniProt Q5VWK5); assay: Binding assay: displacement of fluorophore (TAMRA)-labelled reference compound from human IL-23R (BRET, Nluc-IL23R fusion protein membranes); conditions: for Emax: read-out: % displacement (hIL-23R binding)
T1 construct: Nanoluc luciferase (Nluc); secretion signal encoded by the plasmid (not specified); expressed in transfected cells; crude membranes used in the assay
T1 sequence (Q5VWK5 22-629): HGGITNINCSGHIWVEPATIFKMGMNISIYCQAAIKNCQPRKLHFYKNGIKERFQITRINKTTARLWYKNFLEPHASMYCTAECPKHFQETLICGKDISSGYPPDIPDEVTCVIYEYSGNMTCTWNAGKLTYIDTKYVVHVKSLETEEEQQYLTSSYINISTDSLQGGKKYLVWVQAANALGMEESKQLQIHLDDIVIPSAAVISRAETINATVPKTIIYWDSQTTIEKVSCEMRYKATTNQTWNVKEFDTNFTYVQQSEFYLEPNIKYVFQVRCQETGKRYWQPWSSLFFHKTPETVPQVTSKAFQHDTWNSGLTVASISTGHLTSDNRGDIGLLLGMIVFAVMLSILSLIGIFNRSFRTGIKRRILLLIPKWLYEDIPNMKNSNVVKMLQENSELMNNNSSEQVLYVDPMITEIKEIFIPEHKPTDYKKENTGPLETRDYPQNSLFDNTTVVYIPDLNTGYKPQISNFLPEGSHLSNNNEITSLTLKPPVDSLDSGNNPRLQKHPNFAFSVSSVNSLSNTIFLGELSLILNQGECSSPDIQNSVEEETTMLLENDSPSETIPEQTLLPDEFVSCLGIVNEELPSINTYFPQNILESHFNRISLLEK

[1] = system: IL-23 mediated STAT3 signalling (DB cells); assay: Functional inhibition of IL-23 mediated STAT3 signalling (phospho-STAT3 Tyr705) in DB cells; type: cell-based, human; conditions: for IC50: Table 3-2, EC80 of hIL-23, read-out: hIL-23 (pSTAT3) antagonist IC50; for hIL-23 (pSTAT3) antagonist % inhibition: Table 3-2, maximal inhibitory response, EC80 of hIL-23
Text: Upon binding of IL-23, the IL-23R forms a heterodimer signalling complex together with IL-12R β1, which through the JAK2/STAT3 pathway promotes phosphorylation of STAT3 to form phospho-STAT3.
For compounds tested in this assay, the response was normalized relative to control values to calculate the IC50 and maximal inhibitory response from a concentration response curve of the compound in presence of a fixed concentration of human IL-23.
The assay procedure was as follows. […] Following preincubation of the DB cells with inhibitor for 15 min in a cell incubator (37° C., 5% CO2), 20 μL of the prepared 3× the EC80 of hIL-23 solution was added to each well and incubated for 90 min in a cell incubator (37° C., 5% CO2). For some wells buffer only or IL-23 only corresponding to the EC80 was added to obtain readouts needed for normalization. To terminate the assay, the plate was spun at 1000 G for 5 min to pellet cells, the supernatant removed using an 8-channel manual pipette, and then added 50 μL/well Complete Lysis Buffer from the MSD STAT3 kit (Cat #K150SVD, Mesoscale) to the cell pellet. To completely lyse cells to release phospho-STAT3 for detection, the plate was shaken for 10 min at room temperature (500 rpm) sealed with aluminium foil and placed at −80° C. for a minimum of 15 min. Detection of the phospho-STAT3 level in the cell lysate from the individual wells was determined using the MSD STAT3 kit (Cat #K150SVD, Mesoscale) and read on a Meso QuickPlex SQ 120 plate reader (Mesoscale).
For data analysis raw data counts from the Meso QuickPlex SQ 120 plate reader were normalized relative to the response by the EC80 of hIL-23 alone (no compound added) and the buffer level.

Row | Emax (human IL-23R) | IC50 [1] | IC50 (human IL-23R) | SMILES | hIL-23 (pSTAT3) antagonist % inhibition [1]
1 | 105% |  |  | CC(C)C[C@]1(C)NC(=O)[C@H](Cc2ccc3ccccc3c2)NC(=O)[C@H](Cc2ccc(OCCN)cc2)NC(=O)[C@@H]2CSCC(=O)CSC[C@H](NC(=O)[C@H](CO)NC(=O)[C@H](Cc3cccnc3)NC(=O)CCNC(=O)CC[C@@H](C(=O)N[C@H](CCCNC(=N)N)C(N)=O)NC1=O)C(=O)N[C@@H](Cc1c[nH]c3ccccc13)C(=O)N[C@@H](CCC(N)=O)C(=O)N2 [Compound 1, [3-Aminopropanoyl](4c)*[3-(3-Pyridyl)-Ala]SC(2a)WQC(2a)[Y(2-aminoethoxy)][2-Nal][2-Me-Leu]E(4c)[{d}R]-[NH2]] ([βAla][3Pal]SCWQC[AEF][2Nal][αMeL]E[dR]-NH2; linker 4-7 via CH2COCH2; lactam N-11) | 
2 | 103% |  |  | CC(C)C[C@]1(C)NC(=O)[C@H](Cc2ccc3ccccc3c2)NC(=O)[C@H](Cc2ccc(OCCN)cc2)NC(=O)[C@@H]2CSCC(=O)CSC[C@H](NC(=O)[C@H](CO)NC(=O)CCNC(=O)[C@H](Cc3cccnc3)NC(=O)CC[C@@H](C(=O)N[C@H](CCCNC(=N)N)C(N)=O)NC1=O)C(=O)N[C@@H](Cc1c[nH]c3ccccc13)C(=O)N[C@@H](CCC(N)=O)C(=O)N2 [Compound 2, [3-(3-Pyridyl)-Ala](4c)*[3-Aminopropanoy]SC(2a)WQC(2a)[Y(2-aminoethoxy)][2-Nal][2-Me-Leu]E(4c)[{d}R]-[NH2]] ([3Pal][βAla]SCWQC[AEF][2Nal][αMeL]E[dR]-NH2; linker 4-7 via CH2COCH2; lactam N-11) | 
3 |  | 1.4 nM |  | CC(C)C[C@]1(C)NC(=O)[C@H](Cc2ccc3ccccc3c2)NC(=O)[C@H](Cc2ccc(OCCN)cc2)NC(=O)[C@@H]2CCNC(=O)CC[C@H](NC(=O)[C@H](CO)NC(=O)Cc3ccc(cc3)CNC(=O)CC[C@@H](C(=O)NC[C@@H](N[C@@H](Cc3cccnc3)C(N)=O)C(F)(F)F)NC1=O)C(=O)N[C@@H](Cc1c[nH]c3ccccc13)C(=O)N[C@@H](CCC(N)=O)C(=O)N2 [Compound 16, [4-Aminomethyl-phenylacetyl](1c)*SE(2c)WQ[Dab](2c)[Y(2-aminoethoxy)][2-Nal][2-Me-Leu]E(1c)[{d}Gly-CF3][3-(3-Pyridyl)-Ala]-[NH2]] | 97%
4 | 98% |  | 1.2 nM | CC(C)C[C@]1(C)NC(=O)[C@H](Cc2ccc3ccccc3c2)NC(=O)[C@H](Cc2ccc(OCCN)cc2)NC(=O)[C@@H]2CCNC(=O)CC[C@H](NC(=O)[C@H](CO)NC(=O)Cc3ccc(cc3)CNC(=O)CC[C@@H](C(=O)NC[C@H](N[C@@H](Cc3cccnc3)C(N)=O)C(F)(F)F)NC1=O)C(=O)N[C@@H](Cc1c[nH]c3ccccc13)C(=O)N[C@@H](CCC(N)=O)C(=O)N2 [Compound 17, [4-Aminomethyl-phenylacetyl](1c)*SE(2c)WQ[Dab](2c)[Y(2-aminoethoxy)][2-Nal][2-Me-Leu]E(1c)[Gly-CF3][3-(3-Pyridyl)-Ala]-[NH2]] | 
5 | 100% |  | 12 nM | CNC(=O)[C@H](Cc1cccnc1)NC(=O)[C@H](CCN)NC(=O)[C@@H]1CCC(=O)NCc2ccc(cc2)CC(=O)N[C@@H](C)C(=O)N[C@H]2CCC(=O)NCC[C@H](NC(=O)[C@H](CCC(N)=O)NC(=O)[C@H](Cc3c[nH]c4ccccc34)NC2=O)C(=O)N[C@@H](Cc2ccc(OCCN)cc2)C(=O)N[C@@H](CC2CC2)C(=O)NC(C)(C)C(=O)N1 [Compound 42, [4-Aminomethyl-phenylacetyl](1c)*AE(2c)WQ[Dab](2c)[Y(2-aminoethoxy)][Cyclopropyl-Ala][Aib]E(1c)[Dab][3-(3-Pyridyl)-Ala]-[NHMe]] | 
6 | 104% |  |  | CNC(=O)[C@H](Cc1cccnc1)NC(=O)[C@H](CCN)NC(=O)[C@@H]1CCC(=O)NCc2ccc(cc2)CC(=O)N[C@@H](C)C(=O)N[C@H]2CCC(=O)NCC[C@H](NC(=O)[C@H](CCC(N)=O)NC(=O)[C@H](Cc3c[nH]c4ccccc34)NC2=O)C(=O)N[C@@H](Cc2c[nH]c3ccccc23)CC(=O)N[C@@H](Cc2ccc3ccccc3c2)C(=O)NC(C)(C)C(=O)N1 [Compound 45, [4-Aminomethyl-phenylacetyl](1c)*AE(2c)WQ[Dab](2c)[beta-hTrp][2-Nal][Aib]E(1c)[Dab][3-(3-Pyridyl)-Ala]-[NHMe]] | 
7 | 96% |  | 0.01 nM | CNC(=O)[C@H](Cc1cccnc1)NC(=O)[C@H](CCN)NC(=O)[C@@H]1CCC(=O)NCc2ccc(cc2)CC(=O)N(C)[C@@H](C)C(=O)N[C@H]2CCC(=O)NCC[C@H](NC(=O)[C@H](CCC(N)=O)NC(=O)[C@H](Cc3c[nH]c4ccccc34)NC2=O)C(=O)N[C@@H](Cc2ccc(OCCN)cc2)C(=O)N[C@@H](Cc2ccc3ccccc3c2)C(=O)NC(C)(C)C(=O)N1 [Compound 48, [4-aminomethyl-phenylacetyl(1c)*][N—Me-Ala]E(2c)WQ[Dab](2c)[Y(2-aminoethoxy)][2Nal][Aib]E(1c)[Dab][3-(3-Pyridyl)-alanyl]-[NHMe]] ([X1][NMeA]EWQ[Dab][AEF][2Nal][Aib]E[Dab][3Pal]-NHMe; lactam 3-6, N-10) | 
8 |  | 370 nM |  | CC(=O)N[C@@H](CC(=O)O)C(=O)N[C@H]1CCC(=O)NCCCC[C@@H](C(=O)N[C@@H](CCCNC(=N)N)C(N)=O)NC(=O)[C@H](CC(C)C)NC(=O)[C@H](Cc2ccc3ccccc3c2)NC(=O)[C@H](Cc2c[nH]c3ccccc23)NC(=O)[C@@H]2CSCC(=O)CSC[C@H](NC(=O)[C@H](CO)NC1=O)C(=O)N[C@@H](Cc1c[nH]c3ccccc13)C(=O)N[C@@H](CCC(N)=O)C(=O)N2 [Ref 17, [Ac]-DE(1c)SC(2a)WQC(2a)W[2-Nal]LK(1c)R-[NH2], reference compound] | 
9 |  | 0.13 nM |  | CC(C)C[C@]1(C)NC(=O)[C@H](Cc2ccc3ccccc3c2)NC(=O)[C@H](Cc2ccc(OCCN)cc2)NC(=O)[C@@H]2CSCC(=O)CSC[C@H](NC(=O)[C@H](CO)NC(=O)c3cccc(c3)CNC(=O)CC[C@@H](C(=O)N[C@@H](CCCNC(=N)N)C(=O)N[C@@H](Cc3cccnc3)C(N)=O)NC1=O)C(=O)N[C@@H](Cc1c[nH]c3ccccc13)C(=O)N[C@@H](CCC(N)=O)C(=O)N2 [Ref 78, [(3-Aminomethyl)benzoyl](1c)*SC(2a)WQC(2a)[Y(2-aminoethoxy)][2-Nal][2-Me-Leu]E(1c)R[3-(3-Pyridyl)-Ala]-[NH2], reference compound] ([3Amb]SCWQC[AEF][2Nal][αMeL]ER[3Pal]-NH2; linker 3-6 via CH2COCH2; lactam N-10) | 100%
10 |  | 11 nM |  | CC(C)C[C@]1(C)NC(=O)[C@H](Cc2ccc3ccccc3c2)NC(=O)[C@H](Cc2ccc(OCCN)cc2)NC(=O)[C@@H]2CSCC(=O)CSC[C@H](NC(=O)[C@H](CO)NC(=O)Cc3ccc(cc3)CNC(=O)CC[C@@H](C(=O)N[C@H](CCCNC(=N)N)C(N)=O)NC1=O)C(=O)N[C@@H](Cc1c[nH]c3ccccc13)C(=O)N[C@@H](CCC(N)=O)C(=O)N2 [Ref 80, [4-Aminomethyl-phenylacetyl](1c)*SC(2a)WQC(2a)[Y(2-aminoethoxy)][2-Nal][2-Me-Leu]E(1c)[{d}R]-[NH2], reference compound] ([X1]SCWQC[AEF][2Nal][αMeL]E[dR]-NH2; linker 3-6 via CH2COCH2; lactam N-10) | 97%
